Patent US11912703B2, “6-azaindole compounds” (BRISTOL-MYERS SQUIBB COMPANY, priority 2017, dated 2024)
Like-named read-outs stand apart in the source and are kept apart here.

Assays:
human TLR7 = human TLR7 (Homo sapiens (Human), UniProt Q9NYK1); assay: TLR7 inhibition reporter assay (HEK-Blue SEAP); type: cell-based; details: HEK-Blue cells overexpressing human TLR7, gardiquimod 7.5 μM stimulation
human TLR8 = human TLR8 (Homo sapiens (Human), UniProt Q9NR97); assay: TLR8 inhibition reporter assay (HEK-Blue SEAP);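 further: SEAP driven by IFN-β minimal promoter with five NF-κB and AP-1 sites, compounds tested 0.05 nM to 50 µM, 22 h incubation, inhibition relative to agonist plus DMSO wells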
human TLR9 = human TLR9 (Homo sapiens (Human), UniProt Q9NR96); assay: TLR9 inhibition reporter assay (HEK-Blue SEAP);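 further: SEAP driven by IFN-β minimal promoter carrying five NF-κB and AP-1 sites, 22 h at 37 °C, compounds 0.05 nM–50 µM, inhibition scaled between agonist-plus-DMSO and reference-inhibitor wells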
[1] = read-out: TLR8 IC50; HEK-Blue cells overexpressing human TLR8, R848 15.9 μM stimulation, SEAP reporter
[2] = read-out: TLR9 IC50; HEK-Blue cells overexpressing human TLR9, ODN2006 5 nM stimulation, SEAP reporter
[3] = read-out: TLR8 IC50; HEK-Blue cells overexpressing human TLR8; R848 15.9 μM stimulation; SEAP reporter
[4] = read-out: TLR9 IC50; HEK-Blue cells overexpressing human TLR9; ODN2006 5 nM stimulation; SEAP reporter

Sequence of human TLR8 (Q9NR97 27-1041): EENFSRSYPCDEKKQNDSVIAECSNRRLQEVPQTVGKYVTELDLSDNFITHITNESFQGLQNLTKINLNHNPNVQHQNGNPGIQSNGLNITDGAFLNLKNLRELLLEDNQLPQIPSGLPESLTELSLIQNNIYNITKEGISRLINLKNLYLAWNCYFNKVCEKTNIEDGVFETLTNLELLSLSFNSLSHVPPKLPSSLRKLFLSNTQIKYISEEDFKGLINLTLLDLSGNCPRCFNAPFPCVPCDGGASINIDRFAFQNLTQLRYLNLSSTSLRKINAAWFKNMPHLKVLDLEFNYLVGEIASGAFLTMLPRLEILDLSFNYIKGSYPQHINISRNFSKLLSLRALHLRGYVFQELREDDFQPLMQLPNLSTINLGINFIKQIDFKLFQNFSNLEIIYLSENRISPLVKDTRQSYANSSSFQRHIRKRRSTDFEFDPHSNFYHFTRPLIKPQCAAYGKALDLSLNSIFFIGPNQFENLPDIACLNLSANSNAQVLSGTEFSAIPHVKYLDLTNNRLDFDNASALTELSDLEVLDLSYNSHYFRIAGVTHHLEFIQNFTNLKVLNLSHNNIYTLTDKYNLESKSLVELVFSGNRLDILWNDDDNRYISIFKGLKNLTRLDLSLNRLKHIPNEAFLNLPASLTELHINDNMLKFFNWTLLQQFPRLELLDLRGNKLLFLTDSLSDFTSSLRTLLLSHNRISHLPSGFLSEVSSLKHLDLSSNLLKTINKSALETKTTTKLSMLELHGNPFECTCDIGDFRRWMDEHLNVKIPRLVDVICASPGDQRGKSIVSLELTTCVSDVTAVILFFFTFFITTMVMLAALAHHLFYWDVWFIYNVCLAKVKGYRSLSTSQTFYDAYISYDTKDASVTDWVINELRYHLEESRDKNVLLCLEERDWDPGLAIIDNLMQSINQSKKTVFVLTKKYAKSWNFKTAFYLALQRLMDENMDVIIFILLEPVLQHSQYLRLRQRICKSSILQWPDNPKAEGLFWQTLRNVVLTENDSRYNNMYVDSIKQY
Sequence of human TLR7 (Q9NYK1 27-1049): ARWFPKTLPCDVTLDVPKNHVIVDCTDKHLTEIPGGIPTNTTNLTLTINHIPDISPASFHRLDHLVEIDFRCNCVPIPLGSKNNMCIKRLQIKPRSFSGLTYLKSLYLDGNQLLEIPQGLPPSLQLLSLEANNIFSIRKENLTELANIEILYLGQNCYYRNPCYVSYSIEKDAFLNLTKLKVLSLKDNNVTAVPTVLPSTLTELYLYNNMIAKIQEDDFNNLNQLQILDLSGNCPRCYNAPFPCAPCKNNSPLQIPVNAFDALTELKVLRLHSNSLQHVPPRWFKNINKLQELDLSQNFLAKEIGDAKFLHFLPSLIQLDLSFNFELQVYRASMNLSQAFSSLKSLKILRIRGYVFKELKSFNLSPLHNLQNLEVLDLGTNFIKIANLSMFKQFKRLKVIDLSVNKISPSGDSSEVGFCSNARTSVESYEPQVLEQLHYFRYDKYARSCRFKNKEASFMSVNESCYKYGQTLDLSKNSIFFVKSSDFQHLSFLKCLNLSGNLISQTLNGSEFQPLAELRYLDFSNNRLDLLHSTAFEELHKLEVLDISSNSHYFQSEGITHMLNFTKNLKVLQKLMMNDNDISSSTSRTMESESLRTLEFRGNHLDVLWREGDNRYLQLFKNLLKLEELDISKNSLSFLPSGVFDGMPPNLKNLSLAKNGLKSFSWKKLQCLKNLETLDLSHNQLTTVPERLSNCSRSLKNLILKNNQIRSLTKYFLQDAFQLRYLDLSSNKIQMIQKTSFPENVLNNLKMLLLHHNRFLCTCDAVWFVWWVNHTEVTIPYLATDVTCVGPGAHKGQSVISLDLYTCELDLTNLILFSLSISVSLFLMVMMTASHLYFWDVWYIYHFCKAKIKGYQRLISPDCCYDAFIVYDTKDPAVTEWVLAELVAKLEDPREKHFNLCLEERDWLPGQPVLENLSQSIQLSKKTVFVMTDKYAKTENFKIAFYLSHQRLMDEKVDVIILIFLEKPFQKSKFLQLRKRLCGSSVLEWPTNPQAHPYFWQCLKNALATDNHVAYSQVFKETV
Sequence of human TLR9 (Q9NR96 26-1032): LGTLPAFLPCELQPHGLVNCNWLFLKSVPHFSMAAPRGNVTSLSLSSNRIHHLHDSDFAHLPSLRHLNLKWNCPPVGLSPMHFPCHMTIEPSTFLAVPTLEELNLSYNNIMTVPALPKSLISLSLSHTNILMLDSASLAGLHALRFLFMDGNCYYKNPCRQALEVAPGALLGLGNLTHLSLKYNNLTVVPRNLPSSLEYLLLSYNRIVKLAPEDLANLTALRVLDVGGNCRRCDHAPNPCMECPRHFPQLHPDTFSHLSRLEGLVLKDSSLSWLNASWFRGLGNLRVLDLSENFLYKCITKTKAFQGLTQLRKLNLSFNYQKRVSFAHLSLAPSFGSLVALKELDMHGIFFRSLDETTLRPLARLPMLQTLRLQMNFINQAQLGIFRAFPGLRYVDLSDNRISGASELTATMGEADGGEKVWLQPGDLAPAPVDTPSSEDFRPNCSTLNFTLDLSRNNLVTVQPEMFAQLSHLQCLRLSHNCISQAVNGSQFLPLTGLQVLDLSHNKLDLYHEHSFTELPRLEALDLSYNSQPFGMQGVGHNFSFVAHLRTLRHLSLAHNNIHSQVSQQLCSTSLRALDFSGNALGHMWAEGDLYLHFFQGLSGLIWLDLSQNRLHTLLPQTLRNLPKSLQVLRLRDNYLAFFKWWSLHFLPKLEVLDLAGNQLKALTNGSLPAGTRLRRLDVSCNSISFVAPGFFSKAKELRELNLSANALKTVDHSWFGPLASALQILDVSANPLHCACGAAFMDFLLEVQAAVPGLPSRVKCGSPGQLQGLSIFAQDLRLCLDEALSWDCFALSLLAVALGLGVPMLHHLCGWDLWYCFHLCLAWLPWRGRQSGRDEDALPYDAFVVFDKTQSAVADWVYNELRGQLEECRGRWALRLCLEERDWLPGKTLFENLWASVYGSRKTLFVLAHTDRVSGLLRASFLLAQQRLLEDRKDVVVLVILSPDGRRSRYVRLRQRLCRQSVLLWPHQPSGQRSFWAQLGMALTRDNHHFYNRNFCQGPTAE

SMILES	IC50 (human TLR7) [nM]	IC50 (human TLR8; [1]) [nM]	IC50 (human TLR9; [2]) [nM]	IC50 (human TLR8; [3]) [nM]	IC50 (human TLR9; [4]) [nM]
COc1cc(-c2[nH]c3cnc(C4CCC(NC5COC5)C4)cc3c2C(C)C)cn2ncnc12 (stereo not shown) [Example 178]	7	2.7	321	–	–
COc1cc(-c2[nH]c3cnc(N4CCC(N5CC6(COC6)C5)CC4)c(C)c3c2C(C)C)cn2ncnc12 [Example 139]	1.1	1	1030	–	–
Cc1c(-c2[nH]c3cnc(N4CCN(C5CCN(C(C)C)CC5)C[C@H]4C)c(F)c3c2C(C)C)cn2ncnc2c1C [Example 462]	1.1	–	–	1.5	1970
Cc1c(N2CCC(NC(C)C)CC2)ncc2[nH]c(-c3cc(C)c4ncnn4c3)c(C(C)C)c12 [Example 236]	0.66	1.1	939	1.1	939
COc1cc(-c2[nH]c3cnc(N4CCC(N(C)CC(C)(C)C)CC4)c(F)c3c2C(C)C)cn2ncnc12 [Example 47]	–	1.5	2580	–	–
COc1cc(-c2[nH]c3cnc(N4CCC(NC5COC5)CC4)c(F)c3c2C(C)C)cn2ncnc12 [Example 42, 1-(4-fluoro-3-isopropyl-2-(8-methoxy-[1,2,4]triazolo[1,5-a]pyridin-6-yl)-1H-pyrrolo[2,3-c]pyridin-5-yl)-N-(oxetan-3-yl)piperidin-4-amine]	1.6	0.59	9180	–	–
COCCN1CCN(c2ncc3[nH]c(-c4cn5ncnc5c(C)c4C)c(C(C)C)c3c2F)[C@H](C)C1 [Example 472]	5.3	–	–	0.92	46600
Cc1cc(-c2[nH]c3cnc(C4CCN(CC(N)=O)CC4)c(F)c3c2C(C)C)cc(C)n1 [Example 152]	5	6.4	4090	–	–
Cc1c(-c2[nH]c3cnc(C4CCC(NC(C)C)CC4)cc3c2C(C)C)cn2ncnc2c1C (stereo not shown) [Example 326]	14	78	1220	–	–
Cc1cc(-c2[nH]c3cnc(C4CCNCC4)cc3c2C(C)C)cn2ncnc12 [Example 4, 6-(3-isopropyl-5-(piperidin-4-yl)-1h-pyrrolo[2,3-c]pyridin-2-yl)-8-methyl-[1,2,4]triazolo [1,5-a]pyridine]	–	973	13100	–	–
COc1cc(-c2[nH]c3cnc(C4CCC(NC5(C)COC5)CC4)c(F)c3c2C(C)C)cn2ncnc12 (stereo not shown) [Example 105]	–	0.59	2250	–	–
COc1cc(-c2[nH]c3cnc(C4CCC(NCC(C)(C)OC)CC4)c(C)c3c2C(C)C)cn2ncnc12 (stereo not shown) [Example 207]	–	7.7	437	–	–
Cc1cc(-c2[nH]c3cnc(N4CCC(N(C)C(C)C)CC4)c(F)c3c2C(C)C)cn2ncnc12 [Example 68]	–	–	5290	–	–
COc1cc(-c2[nH]c3cnc(C4CCC(NCC(C)(C)O)CC4)c(F)c3c2C(C)C)cn2ncnc12 (stereo not shown) [Example 195]	–	3	577	–	–
Cc1c(-c2[nH]c3cnc(C4CCN(CC(=O)N(C)C)CC4)c(F)c3c2C(C)C)cn2ncnc2c1C [Example 22]	6.2	1.8	–	–	–
COc1cc(-c2[nH]c3cnc(C4CCC(NCC(C)(C)O)CC4)c(F)c3c2C(C)C)cn2ncnc12 (stereo not shown) [Example 74]	–	0.77	694	–	–
COc1cc(-c2[nH]c3cnc(N4CCN(CCS(C)(=O)=O)CC4)c(F)c3c2C(C)C)cn2ncnc12 [Example 362]	4.9	4	–	–	–
COc1cc(-c2[nH]c3cnc(C4CCC(NC5CCOCC5)CC4)c(F)c3c2C(C)C)cn2ncnc12 (stereo not shown) [Example 194]	–	–	575	–	–
COc1cc(-c2[nH]c3cnc(C4CCC(N5CCC5)CC4)c(F)c3c2C(C)C)cn2ncnc12 (stereo not shown) [Example 46]	0.98	1.6	–	–	–
COc1cc(-c2[nH]c3cnc(C4CCC(NC5CCOCC5)CC4)c(F)c3c2C(C)C)cn2ncnc12 (stereo not shown) [Example 160]	–	–	1280	–	–
COc1cc(-c2[nH]c3cnc(C4CCC(NC5(C)COC5)CC4)c(F)c3c2C(C)C)cn2ncnc12 (stereo not shown) [Example 192]	–	3.9	3140	–	–
COc1cc(-c2[nH]c3cnc(C4CCC(N(C)C(C)C)C4)cc3c2C(C)C)cn2ncnc12 (stereo not shown) [Example 145]	–	–	506	–	–
COc1cc(-c2[nH]c3cnc(C4CCC(N(C)C(C)C)C4)cc3c2C(C)C)cn2ncnc12 (stereo not shown) [Example 63]	–	–	2990	–	–
COc1cc(-c2[nH]c3cnc(N4CCN(CC(=O)N5CCOCC5)CC4)c(F)c3c2C(C)C)cn2ncnc12 [Example 363]	–	3.7	43700	–	–
COc1cc(-c2[nH]c3cnc(C4CCC(NCC(C)(C)OC)CC4)c(C)c3c2C(C)C)cn2ncnc12 (stereo not shown) [Example 206]	–	13	260	–	–
